Results taken from patent publication US7892789B2, “Method of increasing cell permeability to trehalose by recombinantly producing a trehalose transporter” (priority 2007, dated 2011).
Where two headings read alike, the source gives them in different places.

Legend:
hGLUT1 = target: T1, hGLUT1 (Homo sapiens, UniProt P11166); test: Sugar uptake assay in Xenopus oocytes expressing hGLUT1; format: cell-based; details: 105 mM of sugar, 3 h
T1 construct: ORF of hGLUT1 cDNA was obtained by digestion of pSPMM1 with BamH I; expressed in transfected cells; host or cells: Xenopus laevis oocytes injected with cRNA
T1 sequence (P11166 1-492): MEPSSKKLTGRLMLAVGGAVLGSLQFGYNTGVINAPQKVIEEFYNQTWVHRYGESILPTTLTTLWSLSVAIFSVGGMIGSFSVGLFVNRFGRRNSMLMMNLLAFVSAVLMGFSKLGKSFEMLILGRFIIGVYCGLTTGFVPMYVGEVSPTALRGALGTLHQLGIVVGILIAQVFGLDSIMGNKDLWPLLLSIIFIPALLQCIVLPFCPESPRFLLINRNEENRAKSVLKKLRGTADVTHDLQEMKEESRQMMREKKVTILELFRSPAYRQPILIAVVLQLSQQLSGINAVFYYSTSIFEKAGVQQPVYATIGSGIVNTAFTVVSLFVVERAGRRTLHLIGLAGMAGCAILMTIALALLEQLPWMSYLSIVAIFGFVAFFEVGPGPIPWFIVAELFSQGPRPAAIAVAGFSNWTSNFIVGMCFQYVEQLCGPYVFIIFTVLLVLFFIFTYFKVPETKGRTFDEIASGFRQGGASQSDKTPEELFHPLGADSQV
Description: (§1) The capped RNA (cRNA) expression vector pTRET1-XbG-ev1 series was constructed as follows: ORF of either Tret1, DmTret1, AmTret1, AgTret1 or BmTret1 cDNA was amplified with PCR using specific primers containing Bgl II site at the 5′-end on each primer, respectively. The PCR products were digested with the restriction enzymes, and cloned into the site of Bgl II in pXbG-ev1 (Preston, G. M., et al. (1992) Science 256, 385-387). ORF of hGLUT1 cDNA was obtained by digestion of pSPMM1 with BamH I, and then subcloned into the site of Bgl II in pXbG-2. Template DNAs for cRNA synthesis were amplified from the corresponding cRNA expression vectors with a high fidelity DNA polymerase, KOD—Plus—, (TOYOBO). The cRNAs were synthesized with mMESSAGE mMACHINE T7 Kit (Ambion), and then purified with RNeasy MiniElute Cleanup kit (Qiagen).
(§2) All uptake assays for zero-trans trehalose and/or other sugars were performed using Xenopus oocytes expressing TRET1 at 15° C. in MBS containing appropriate concentrations of sugars. Sugar concentrations were determined using HPLC (Watanabe, M., et al. (2002) J Exp Biol 205, 2799-2802). All assays were carried out in triplicate.
(§3) Xenopus oocytes expressing either TRET1 or hGLUT1 were incubated in 105 mM of various sugars for 3 h. Tre: trehalose; Mal: maltose; Suc: sucrose; Lac: lactose; MAG: methyl-a-glucopyranoside; and 2-DOG: 2-deoxy-glucose (FIG. 3B).

TRET1 = target: T2, TRET1 (Polypedilum vanderplanki, UniProt A5LGM7); format: cell-based; details: for effect on the transport activity of TRET1: 105 mM trehalose, various concentrations of ionophore/uncoupler
T2 construct: ORF of either Tret1, DmTret1, AmTret1, AgTret1 or BmTret1 cDNA was amplified with PCR; expressed in transfected cells; host or cells: Xenopus laevis oocytes injected with cRNA
T2 sequence (A5LGM7 1-504): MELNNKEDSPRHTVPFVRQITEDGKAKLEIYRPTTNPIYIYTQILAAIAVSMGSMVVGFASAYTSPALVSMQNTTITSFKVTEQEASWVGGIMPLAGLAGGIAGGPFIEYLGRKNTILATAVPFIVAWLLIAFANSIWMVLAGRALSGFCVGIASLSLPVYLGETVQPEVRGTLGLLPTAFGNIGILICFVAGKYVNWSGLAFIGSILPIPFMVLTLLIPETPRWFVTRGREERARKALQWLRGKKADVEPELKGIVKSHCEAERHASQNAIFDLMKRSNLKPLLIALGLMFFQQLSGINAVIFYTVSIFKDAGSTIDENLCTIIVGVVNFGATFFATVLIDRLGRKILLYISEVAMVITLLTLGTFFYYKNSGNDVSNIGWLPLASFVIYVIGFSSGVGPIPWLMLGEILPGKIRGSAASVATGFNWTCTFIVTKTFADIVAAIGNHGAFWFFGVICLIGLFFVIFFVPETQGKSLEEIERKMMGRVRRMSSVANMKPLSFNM
Description: as §1
Stage V or VI oocytes were extirpated from X. laevis females, and digested ovarian lobes with 0.2% (w/v) collagenase, type II (Sigma-Aldrich) in Ca^2+-free modified Barth's saline (MBS; 88.0 mM NaCl, 1.0 mM KCl, 2.4 mM NaHCO3, 15.0 mM Tris-Cl, 0.82 mM MgSO4, […] penicillin and streptomycin, pH7.6) at 15° C. for 3 h. The oocytes were microinjected with 40 nl of either 1 ng/nl of the TRET1::AcGFP1 or AcGFP1 cRNA, or nuclease-free water (Invitrogen) as a negative control. In order to express TRET1, the oocytes were incubated in MBS (containing 0.41 mM CaCl2) for 3-4 days after injection at 15° C. Fluorescence images of the oocytes injected with the cRNA were observed and analyzed with a fluorescence microscope BZ-8000 (KEYENCE).
as §2, §3
In General, transporters contain two sub-classes: facilitated transporters and secondary active transporters. Activities of secondary active transporters are dependent on the electrochemical membrane potential resulting from the distribution of ions such as H^+. For example, proton-dependent MAL11/AGT1 can act only under acidic extracellular conditions (Stambuk, B. U., et al. (1996) Eur J Biochem 237, 876-881). On the other hand, facilitated transporters function independently of the electrochemical membrane potential. Xenopus oocytes expressing TRET1 were incubated in 105 mM trehalose at pH 4.2 and 7.6 for 3 h.
Xenopus oocytes expressing TRET1 were incubated in 105 mM trehalose with either control buffer (Mock; 0.1% acetone), or buffer containing various concentrations of nigericin (Na^+, K^+-ionophore), valinomycin (K^+-ionophore) or CCCP (H^+-ionophore, uncoupler) for 3 h.
In general, facilitated transporters enable their substrates to flow across membranes down concentration gradients. Xenopus oocytes expressing TRET1 were first incubated in 105 mM trehalose for 3 h, and then transferred into trehalose-free buffer and trehalose content was examined over time.
Xenopus oocytes expressing TRET1 were incubated in various concentrations of trehalose for 15 min. Uptake data were fitted to the Michaelis-Menten and Eadie-Hofstee (inset of FIG. 9) equations.

[1] = 105 mM of sugar, 3 h, Xenopus oocytes

Structure (SMILES) | effect on the transport activity of TRET1 (TRET1; 3 h) | transport of sugar by TRET1 (substrate selectivity) (TRET1; [1]) | also measured
O=CC[C@@H](O)[C@H](O)[C@H](O)CO [2-DOG, 2-deoxy-glucose] |  |  | transport of sugar by Glut1 gene product (substrate selectivity) (hGLUT1): transported; transport of sugar by TRET1 (substrate selectivity) (TRET1): transported at a much lower rate
N#CC(C#N)=NNc1cccc(Cl)c1 [CCCP, carbonylcyanide m-chlorophenylhydrazone] | did not significantly affect |  | 
COC1OC(CO)C(O)C(O)C1O (stereo not drawn) [MAG, methyl-a-glucopyranoside] |  | transported at a much lower rate | 
OC[C@H]1O[C@H](O[C@H]2[C@H](O)[C@@H](O)[C@H](O)O[C@@H]2CO)[C@H](O)[C@@H](O)[C@@H]1O [Maltose, maltose] |  | not transported | 
OC[C@H]1O[C@@H](O[C@H]2[C@H](O)[C@@H](O)C(O)O[C@@H]2CO)[C@H](O)[C@@H](O)[C@H]1O (stereo partly drawn) [lactose, 4-O-b-D-galactopyranosyl-D-glucose] |  | not transported | 
CO[C@@H]1C[C@@H](C[C@H]2CC[C@H](C)[C@H]([C@@H](C)C(=O)O)O2)O[C@]2(O[C@](C)([C@H]3CC[C@@](C)([C@@H]4O[C@@H]([C@H]5O[C@@](O)(CO)[C@H](C)C[C@@H]5C)C[C@@H]4C)O3)C[C@H]2C)[C@@H]1C [nigericin] | did not significantly affect |  | 
OC[C@H]1O[C@@](CO)(O[C@H]2O[C@H](CO)[C@@H](O)[C@H](O)[C@H]2O)[C@@H](O)[C@@H]1O [sucrose] |  | not transported | 
CC(C)[C@@H]1NC(=O)[C@H](C)OC(=O)[C@@H](C(C)C)NC(=O)[C@@H](C(C)C)OC(=O)[C@H](C(C)C)NC(=O)[C@H](C)OC(=O)[C@@H](C(C)C)NC(=O)[C@@H](C(C)C)OC(=O)[C@H](C(C)C)NC(=O)[C@H](C)OC(=O)[C@@H](C(C)C)NC(=O)[C@@H](C(C)C)OC1=O [valinomycin] | did not significantly affect |  | 
